Source: patent US20240050392A1, “COMPOSITIONS AND METHODS FOR IMPROVED TREATMENT OF PLATINUM-BASED CHEMOTHERAPEUTIC RESISTANT TUMORS” (THE REGENTS OF THE UNIVERSITY OF THE COLORADO, A BODY …, priority 2021, published 2024)

Columns and labels:
[1] = tested on: bladder tumor-derived organoids; test: Tumor-derived organoid drug screening (alamarBlue viability, reseeding); format: cell-based, human
Description: Three independent organoid models derived from patients that failed between 4 to 6 cycles of neoadjuvant gemcitabine plus cisplatin chemotherapy (FIG. 10A). The organoids mimicked the morphological and genomic characteristics of the tumor from which they were derived (FIG. 10B). These organoids were treated with increasing doses of cisplatin and 20 μM of tosedostat.
Tumor-derived Organoids. Culture of the organoids. Human bladder tissue was obtained from the Erasmus MC Bladder Cancer Center, Rotterdam, the Netherlands. Bladder tumor-derived organoids from biopsies obtained through TURBT or cystectomy. Briefly, bladder tissues were washed with Advanced DMEM/F12 (Gibco) supplemented with 10 mM HEPES (Gibco), 1% GlutaMax (Gibco) and 100 μg/ml primocin (InvivoGen), henceforth Ad+++. Tissue was minced and incubated at 37° C. with the digestion solution (collagenase 2.5 mg/ml in EBSS) and isolated cells were passed through […] strainer (Falcon), washed with Ad+++ and seeded in 50 μl drops of BME (R&D system) containing 10000-15000 cells in 24 well suspension plates (Greiner). Bladder tumor organoids were cultured in a culture medium containing Ad+++ supplemented with 1×B-27 (Gibco), 1.25 mM N-acetylcysteine (Sigma), 10 mM nicotinamide, 20 μM TGFβ receptor inhibitor A83-01, 100 ng/ml recombinant human FGF10 (Peprotech), 25 ng/ml recombinant human FGF7 (Peprotech), 12.5 ng/ml recombinant human FGF2 (Peprotech), 10 μM Y27632 Rho Kinase (ROCK) Inhibitor (Sigma) and conditioned media for recombinant Rspondin (2.5% v/v), and Wnt3A (2.5% v/v). The medium was changed every three days. Organoids were passaged at a 1:3 to 1:6 ratio every 7 days using cell dissociation solution-non enzymatic (Sigma) and plated in fresh BME matrix droplets.
Drug screening. Organoids were collected 7 days after passaging, passed through a […] strainer and 1000 organoids were seeded per well of a 48-well plate in BME matrix droplets. After 24 hours cisplatin (Sigma) resuspended in PBS was added at different concentrations (2, 10, 25, and 50 μM) with or without tosedostat (20 μM) (Tocris) resuspended in DMSO. All wells were adjusted to contain less than 0.7% DMSO. Organoids were cultured for the first 6 days in the presence of drugs followed by drug withdrawal, where organoids were grown in organoid culture media for 10 days. The entire content of the wells in different treatment groups was collected, washed and reseeded after disaggregation in fresh BME, and cultured for 6 days. Cell viability was assayed using alamarBlue (Invitrogen) according to the manufacturer's instructions after 6 days of drug incubation, 10 days of drug withdrawal, and 6 days post reseeding. Viability data was normalized using organoid wells treated with vehicle control.

NPEPPS mRNA = test: Cisplatin induced NPEPPS mRNA expression (RT-qPCR); format: cell-based, human
Description: Cisplatin induced NPEPPS mRNA expression. Total RNA was isolated from cells using Trizol (ThermoFisher) and/or phenol-chloroform based extraction methods. Residual DNA was digested with DNAse I (Life technologies). cDNA synthesis was performed using Superscript II Reverse Transcriptase kit (Life technologies) using random primers. RT-qPCR reactions were performed on a CFX Connect Real-Time PCR Detection System thermocycler (Bio-Rad) using TaqMan gene expression assays for NPEPPS and HMBS as a housekeeping gene (ThermoFisher) in combination with SensiFAST Probe No-ROX Kit (Bioline, Toronto, Canada). Expression data was calculated using 2^−ΔΔCt. All cell line experiments were performed in triplicate from independently grown cells. Comparisons at the indicated dose of cisplatin were made to the control treatment (0 μM cisplatin) using a t-test.

KU1919-GemCis cells = test: Metabolomics of intracellular taurine; format: cell-based, human; settings: KU1919-GemCis cells with knockdown of NPEPPS, 10 μM cisplatin
Description: Given that VRACs transport cisplatin and carboplatin and finding NPEPPS in complex with VRAC subunits (FIGS. 4C-4D), NPEPPS may be a negative regulator of VRAC activity, consequently reducing import of intracellular cisplatin. Thus, the impact of NPEPPS on osmolytes known to be transported through VRACs was assessed.
Metabolomics. Sample preparation. Cell lines were cultured for several passages in IMDM+10% FBS (IMDM10). Prior to experiment, cells were cultured in IMDM10 to ˜80% confluence and then dissociated. For dissociation, cells were washed once with room temperature PBS and then incubated with PBS+0.05% Trypsin-EDTA for 10-15 minutes. Cells were neutralized with IMDM10 and then fully dissociated by gentle pipetting. After dissociation, cells were counted by Trypan blue staining and then replated at 1×10^6 cells. 24 hours after plating, cells were treated with either IMDM10 or IMDM10+10 μM cisplatin. Day 0 cell cultures were immediately processed for metabolomics analysis. […] Cells were suspended in PBS, centrifuged a second time, and then resuspended in PBS and counted. […]
Data generation and analysis. […] Supernatants were clarified by centrifugation (10 minutes, 18,000 g, 4° C.) and 10 μL analyzed using a Thermo Vanquish UHPLC coupled to a Thermo Q Exactive mass spectrometer. […]

[2] = tested on: KU1919-GemCis and KU1919 parental cells; test: Drug dose response with NPEPPS knockdown or overexpression; format: cell-based, human
[3] = cited from earlier work

In the case of `N.N.[Cl][Pt][Cl]` [cisplatin], the “organoid growth after reseeding in new growth conditions” value ([1]; 2 μM cisplatin alone) is reported as “able to re-grow”, the organoid killing ([1]; cisplatin alone at 25 μM) is reported as “all organoids were killed” and the “NPEPPS mRNA” value (NPEPPS mRNA; KU1919-Par and KU1919-GemCis cells after 24 hours of cisplatin treatment) is reported as “increased”. For the same molecule, the NPEPPS induction (NPEPPS mRNA; patient-derived organoids treated with cisplatin) was “induced NPEPPS in a dose dependent manner”, the “intracellular levels of taurine” value (KU1919-GemCis cells) was “reduced even further” and the “effect of NPEPPS knockdown on drug response” value ([2]; KU1919-GemCis cells, stable NPEPPS shRNA knockdown) was “preferentially enhanced response”. The “effect of NPEPPS overexpression on drug response” value ([2]; KU1919 parental lines overexpressing NPEPPS) was “increased treatment resistance” and the “maximum concentration of cisplatin in patients” value [3] was 14 µM.
